Holding throughout (assay): Indoor herbicide activity determination, Seed Treatment; pre-emergence (soil spray)
What all share (format): in vivo

One assay has as its system Aegilops tauschii. Particulars: 120 g a.i./ha, read-out: Herbicidal activities (inhibition rate) Aegilops tauschii. In short, it runs like this:
(§1)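 Weed seeds were sown in 7 cm pots of sandy nutrient soil (pH 6.1, 1% organic matter), covered, bottom-watered and held 24 h in a constant-temperature illuminated room before the soil surface was sprayed in a traveling spray tower. Fresh-weight inhibition versus untreated plants was scored 21 days later.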

The subject of the next assay is Lolium multiflorum. The settings on record: Dosage 240 g a.i./ha. In short, it runs like this: as §1
A further assay concerns Alopecurus japonicus. The settings on record: Dosage 240 g a.i./ha. In short, it runs like this: as §1
Another assay relates to Alopecurus myosuroides. The settings on record: Dosage 240 g a.i./ha. In short, it runs like this:
as §1

The subject of a further assay is Leptochloa chinensis. The settings on record: Dosage 240 g a.i./ha. In short, it runs like this:
as §1

The next assay deals with Digitaria sanguinalis. Particulars: 120 g a.i./ha, read-out: Herbicidal activities (inhibition rate) Digitaria sanguinalis. In short, it runs like this: as §1
The subject of a further assay is Eclipta prostrata. The settings on record: 120 g a.i./ha, read-out: Herbicidal activities (inhibition rate) Eclipta prostrata. In short, it runs like this: as §1
In the next assay the test system is Cyperus iria. Particulars: 120 g a.i./ha, read-out: Herbicidal activities (inhibition rate) Cyperus iria. In short, it runs like this: as §1

We go through 12 molecules from patent EP4722201A1, “3-PHENYLISOXAZOLINE-5-CARBOXAMIDE COMPOUND, AND PREPARATION METHOD THEREFOR, HERBICIDAL COMPOSITION THEREOF AND USE THEREOF” (Jiangsu Flag Chemical Industry Co., Ltd, priority 2023, dated 2024).

Structures are written as SMILES.

On to `COC(=O)[C@H]1C[C@@H](NC(=O)C2(C)CC(c3cc(F)cc(C(F)(F)F)c3)=NO2)CO1` (mixture of isomers) [I-377], for which the inhibition at 120 g/ha with Aegilops tauschii is 80 to 100%; in the assay on Digitaria sanguinalis, 80 to 100%; with Eclipta prostrata, 40 to 60%; with Cyperus iria it was 60 to 80%. Further, the “Herbicidal activities, Lolium multiflorum (inhibition rate class)” value with Lolium multiflorum was “A (A indicates that the inhibition rate was greater than or equal to 80% to 100%)”. In addition, the “Herbicidal activities, Alopecurus japonicus (inhibition rate class)” value in the assay with Alopecurus japonicus is on record as “A (A indicates that the inhibition rate was greater than or equal to 80% to 100%)”. The “Herbicidal activities, Alopecurus myosuroides (inhibition rate class)” value in the assay with Alopecurus myosuroides is listed as “A (A indicates that the inhibition rate was greater than or equal to 80% to 100%)”. Besides, the “Herbicidal activities, Leptochloa chinensis (inhibition rate class)” value in the assay with Leptochloa chinensis is recorded as “A (A indicates that the inhibition rate was greater than or equal to 80% to 100%)”.
On to `CC1(C(=O)N[C@H]2CO[C@@H](C(=O)O)C2)CC(c2cc(F)cc(OC(F)(F)F)c2)=NO1` (mixture of isomers) [I-378], for which the inhibition at 120 g/ha in the assay with Aegilops tauschii lay within 80 to 100%; in the assay with Digitaria sanguinalis, 80 to 100%; in the assay on Eclipta prostrata, 40 to 60%; in the assay on Cyperus iria, 60 to 80%. The “Herbicidal activities, Lolium multiflorum (inhibition rate class)” value in the assay on Lolium multiflorum is reported as “A (A indicates that the inhibition rate was greater than or equal to 80% to 100%)”. For the same molecule, in the assay with Alopecurus japonicus, the “Herbicidal activities, Alopecurus japonicus (inhibition rate class)” value is reported as “A (A indicates that the inhibition rate was greater than or equal to 80% to 100%)”. Also, in the assay with Alopecurus myosuroides, the “Herbicidal activities, Alopecurus myosuroides (inhibition rate class)” value is listed as “A (A indicates that the inhibition rate was greater than or equal to 80% to 100%)”. Also, in the assay on Leptochloa chinensis, the “Herbicidal activities, Leptochloa chinensis (inhibition rate class)” value is reported as “A (A indicates that the inhibition rate was greater than or equal to 80% to 100%)”.
With `COC(=O)C1CC(NC(=O)C2(C)CC(c3cc(Cl)cc(C(F)(F)F)c3)=NO2)CO1` (centres unmarked) [I-386], the inhibition at 120 g/ha in the assay on Aegilops tauschii fell in the range of 80 to 100%; in the assay on Digitaria sanguinalis it was 80 to 100%; in the assay with Eclipta prostrata, 40 to 60%; in the assay with Cyperus iria it was 60 to 80%. For the same molecule, the “Herbicidal activities, Lolium multiflorum (inhibition rate class)” value with Lolium multiflorum is “A (A indicates that the inhibition rate was greater than or equal to 80% to 100%)”. Also, the “Herbicidal activities, Alopecurus japonicus (inhibition rate class)” value in the assay with Alopecurus japonicus is recorded as “A (A indicates that the inhibition rate was greater than or equal to 80% to 100%)”. In the assay with Alopecurus myosuroides, the “Herbicidal activities, Alopecurus myosuroides (inhibition rate class)” value is “A (A indicates that the inhibition rate was greater than or equal to 80% to 100%)”. Also, the “Herbicidal activities, Leptochloa chinensis (inhibition rate class)” value with Leptochloa chinensis is on record as “A (A indicates that the inhibition rate was greater than or equal to 80% to 100%)”.
In the case of `COC(=O)C1CC(NC(=O)C2(C)CC(c3cc(Cl)cc(OC(F)(F)F)c3)=NO2)CO1` (centres unmarked) [I-387], the inhibition at 120 g/ha in the assay with Aegilops tauschii lay in the range of 80 to 100%; in the assay with Digitaria sanguinalis, 80 to 100%; in the assay on Eclipta prostrata, 60 to 80%; in the assay with Cyperus iria it was 60 to 80%. For the same molecule, in the assay with Lolium multiflorum, the “Herbicidal activities, Lolium multiflorum (inhibition rate class)” value is on record as “A (A indicates that the inhibition rate was greater than or equal to 80% to 100%)”. In the assay with Alopecurus japonicus, the “Herbicidal activities, Alopecurus japonicus (inhibition rate class)” value is reported as “A (A indicates that the inhibition rate was greater than or equal to 80% to 100%)”. Besides, in the assay on Alopecurus myosuroides, the “Herbicidal activities, Alopecurus myosuroides (inhibition rate class)” value was “A (A indicates that the inhibition rate was greater than or equal to 80% to 100%)”. Also, in the assay with Leptochloa chinensis, the “Herbicidal activities, Leptochloa chinensis (inhibition rate class)” value is given as “A (A indicates that the inhibition rate was greater than or equal to 80% to 100%)”.
Consider `CC1(C(=O)NC2COC(C(=O)O)C2)CC(c2cc(Cl)cc(OC(F)F)c2)=NO1` (centres unmarked) [I-388], for which the inhibition at 120 g/ha in the assay on Aegilops tauschii lay in the range of 80 to 100%; in the assay on Digitaria sanguinalis, 60 to 80%; with Eclipta prostrata, 60 to 80%; in the assay with Cyperus iria it was 60 to 80%. In addition, in the assay on Lolium multiflorum, the “Herbicidal activities, Lolium multiflorum (inhibition rate class)” value is recorded as “B (B indicates that the inhibition rate was greater than or equal to 60% to less than 80%)”. Further, the “Herbicidal activities, Alopecurus japonicus (inhibition rate class)” value in the assay with Alopecurus japonicus is recorded as “A (A indicates that the inhibition rate was greater than or equal to 80% to 100%)”. Also, in the assay with Alopecurus myosuroides, the “Herbicidal activities, Alopecurus myosuroides (inhibition rate class)” value was “A (A indicates that the inhibition rate was greater than or equal to 80% to 100%)”. Moreover, the “Herbicidal activities, Leptochloa chinensis (inhibition rate class)” value in the assay with Leptochloa chinensis is on record as “A (A indicates that the inhibition rate was greater than or equal to 80% to 100%)”.
With `COC(=O)C1CC(NC(=O)C2(C)CC(c3cc(Cl)cc(OC(F)F)c3)=NO2)CO1` (centres unmarked) [I-390], the inhibition at 120 g/ha with Aegilops tauschii lay within 80 to 100%; with Digitaria sanguinalis, 60 to 80%; in the assay on Eclipta prostrata it was 60 to 80%; in the assay with Cyperus iria, 60 to 80%. Moreover, the “Herbicidal activities, Lolium multiflorum (inhibition rate class)” value with Lolium multiflorum is recorded as “B (B indicates that the inhibition rate was greater than or equal to 60% to less than 80%)”. In addition, in the assay on Alopecurus japonicus, the “Herbicidal activities, Alopecurus japonicus (inhibition rate class)” value is “A (A indicates that the inhibition rate was greater than or equal to 80% to 100%)”. Besides, in the assay with Alopecurus myosuroides, the “Herbicidal activities, Alopecurus myosuroides (inhibition rate class)” value is on record as “A (A indicates that the inhibition rate was greater than or equal to 80% to 100%)”. Also, the “Herbicidal activities, Leptochloa chinensis (inhibition rate class)” value in the assay on Leptochloa chinensis was “A (A indicates that the inhibition rate was greater than or equal to 80% to 100%)”.
Consider `COC(=O)C1CC(NC(=O)C2(C(F)(F)F)CC(c3cc(F)cc(C(F)(F)F)c3)=NO2)CO1` (centres unmarked) [I-392], for which the inhibition at 120 g/ha with Aegilops tauschii lay within 80 to 100%; with Digitaria sanguinalis, 80 to 100%; with Eclipta prostrata, 60 to 80%; with Cyperus iria, 60 to 80%. Moreover, the “Herbicidal activities, Lolium multiflorum (inhibition rate class)” value in the assay with Lolium multiflorum was “A (A indicates that the inhibition rate was greater than or equal to 80% to 100%)”. In addition, the “Herbicidal activities, Alopecurus japonicus (inhibition rate class)” value with Alopecurus japonicus was “A (A indicates that the inhibition rate was greater than or equal to 80% to 100%)”. The “Herbicidal activities, Alopecurus myosuroides (inhibition rate class)” value in the assay with Alopecurus myosuroides is reported as “A (A indicates that the inhibition rate was greater than or equal to 80% to 100%)”. Moreover, the “Herbicidal activities, Leptochloa chinensis (inhibition rate class)” value in the assay with Leptochloa chinensis is “A (A indicates that the inhibition rate was greater than or equal to 80% to 100%)”.
Turning to `COC(=O)C1CC(NC(=O)C2(C(F)(F)F)CC(c3cc(F)cc(OC(F)(F)F)c3)=NO2)CO1` (centres unmarked) [I-393], the inhibition at 120 g/ha fell in the range of 80 to 100% in the assay on Aegilops tauschii, 60 to 80% in the assay on Digitaria sanguinalis, 60 to 80% in the assay on Eclipta prostrata and 60 to 80% with Cyperus iria. In addition, the “Herbicidal activities, Lolium multiflorum (inhibition rate class)” value in the assay with Lolium multiflorum is “A (A indicates that the inhibition rate was greater than or equal to 80% to 100%)”. Further, in the assay with Alopecurus japonicus, the “Herbicidal activities, Alopecurus japonicus (inhibition rate class)” value is “A (A indicates that the inhibition rate was greater than or equal to 80% to 100%)”. The “Herbicidal activities, Alopecurus myosuroides (inhibition rate class)” value in the assay with Alopecurus myosuroides is recorded as “A (A indicates that the inhibition rate was greater than or equal to 80% to 100%)”. In addition, the “Herbicidal activities, Leptochloa chinensis (inhibition rate class)” value in the assay on Leptochloa chinensis is “A (A indicates that the inhibition rate was greater than or equal to 80% to 100%)”.
Regarding `COC(=O)C1CC(NC(=O)C2(C(F)(F)F)CC(c3cc(F)cc(OC(F)F)c3)=NO2)CO1` (centres unmarked) [I-394], the inhibition at 120 g/ha in the assay with Aegilops tauschii is 80 to 100%; in the assay with Digitaria sanguinalis, 60 to 80%; with Eclipta prostrata, 60 to 80%. The “Herbicidal activities, Lolium multiflorum (inhibition rate class)” value with Lolium multiflorum is on record as “A (A indicates that the inhibition rate was greater than or equal to 80% to 100%)”. Moreover, the “Herbicidal activities, Alopecurus japonicus (inhibition rate class)” value in the assay on Alopecurus japonicus was “A (A indicates that the inhibition rate was greater than or equal to 80% to 100%)”. Also, the “Herbicidal activities, Alopecurus myosuroides (inhibition rate class)” value in the assay on Alopecurus myosuroides is listed as “A (A indicates that the inhibition rate was greater than or equal to 80% to 100%)”. Also, the “Herbicidal activities, Leptochloa chinensis (inhibition rate class)” value in the assay with Leptochloa chinensis is given as “A (A indicates that the inhibition rate was greater than or equal to 80% to 100%)”.
Regarding `O=C(O)C1CC(NC(=O)C2(C(F)(F)F)CC(c3cc(Cl)cc(OC(F)F)c3)=NO2)CO1` (centres unmarked) [I-395], the inhibition at 120 g/ha with Aegilops tauschii, with Digitaria sanguinalis, in the assay on Eclipta prostrata and with Cyperus iria was 60 to 80% in each case. In addition, the “Herbicidal activities, Lolium multiflorum (inhibition rate class)” value in the assay with Lolium multiflorum was “A (A indicates that the inhibition rate was greater than or equal to 80% to 100%)”. Also, in the assay with Alopecurus myosuroides, the “Herbicidal activities, Alopecurus myosuroides (inhibition rate class)” value is on record as “A (A indicates that the inhibition rate was greater than or equal to 80% to 100%)”. Moreover, the “Herbicidal activities, Leptochloa chinensis (inhibition rate class)” value with Leptochloa chinensis is “A (A indicates that the inhibition rate was greater than or equal to 80% to 100%)”.
For the molecule `COC(=O)C1CC(NC(=O)C2(C(F)(F)F)CC(c3cc(Cl)cc(C(F)(F)F)c3)=NO2)CO1` (centres unmarked) [I-399], the inhibition at 120 g/ha lay within 80 to 100% with Aegilops tauschii, 80 to 100% in the assay with Digitaria sanguinalis, 60 to 80% with Eclipta prostrata and 60 to 80% in the assay with Cyperus iria. Further, the “Herbicidal activities, Lolium multiflorum (inhibition rate class)” value in the assay with Lolium multiflorum is on record as “B (B indicates that the inhibition rate was greater than or equal to 60% to less than 80%)”. The “Herbicidal activities, Alopecurus japonicus (inhibition rate class)” value in the assay with Alopecurus japonicus was “B (B indicates that the inhibition rate was greater than or equal to 60% to less than 80%)”. Moreover, in the assay with Alopecurus myosuroides, the “Herbicidal activities, Alopecurus myosuroides (inhibition rate class)” value is given as “A (A indicates that the inhibition rate was greater than or equal to 80% to 100%)”. In addition, in the assay with Leptochloa chinensis, the “Herbicidal activities, Leptochloa chinensis (inhibition rate class)” value is listed as “A (A indicates that the inhibition rate was greater than or equal to 80% to 100%)”.
Take `COC(=O)C1CC(NC(=O)C2(C(F)(F)F)CC(c3cc(Cl)cc(OC(F)(F)F)c3)=NO2)CO1` (centres unmarked) [I-400]: the inhibition at 120 g/ha with Aegilops tauschii lay within 80 to 100%; in the assay on Digitaria sanguinalis, 80 to 100%; with Eclipta prostrata, 80 to 100%; in the assay on Cyperus iria it was 60 to 80%. Moreover, the “Herbicidal activities, Alopecurus myosuroides (inhibition rate class)” value with Alopecurus myosuroides was “A (A indicates that the inhibition rate was greater than or equal to 80% to 100%)”. Besides, the “Herbicidal activities, Leptochloa chinensis (inhibition rate class)” value with Leptochloa chinensis is reported as “A (A indicates that the inhibition rate was greater than or equal to 80% to 100%)”.

For orientation: inhibition means the relative decrease from the control value, in per cent.
